Values of other authors, collected in patent US11458199B2, “Liposome formulations” (OPKO Pharmaceuticals, LLC, priority 2012, dated 2022).
pKd: −log10 of the molar value.

What was measured:
VEGF = conditions: read-out: binding affinity to VEGF (Kd)
PCME = conditions: retrospective study, prevention of PCME after cataract surgery

Chain of VEGF (P15692 214-315 limits assumed): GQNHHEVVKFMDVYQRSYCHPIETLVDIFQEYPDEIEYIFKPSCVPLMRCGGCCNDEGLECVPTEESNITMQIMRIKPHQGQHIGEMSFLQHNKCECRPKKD

pKd (VEGF) | Molecule | postoperative rate of macular edema (PCME) [%]
~9.85 | Ranibizumab: recombinant humanized IgG1 kappa isotype monoclonal antibody fragment that binds VEGF-A | –
– | CC(=O)OCC(=O)[C@@]1(O)CC[C@H]2[C@@H]3CCC4=CC(=O)C=C[C@]4(C)[C@H]3[C@@H](O)C[C@@]21C [prednisolone acetate 1%, prednisolone acetate] | 4.0
– | C[C@@H]1C[C@H]2[C@@H]3CCC4=CC(=O)C=C[C@]4(C)[C@@]3(F)[C@@H](O)C[C@]2(C)[C@@]1(O)C(=O)COP(=O)(O)O [dexamethasone sodium phosphate 0.1%, dexamethasone sodium phosphate] | 4.1
